From ChEMBL document CHEMBL4602617, “Discovery and optimization of heteroaryl piperazines as potent and selective PI3Kδ inhibitors” (Bioorg Med Chem Lett, 2020)

Tests used:
[1] = Clearance in human liver microsomes; type: ADME, Microsome; conditions: read-out: CLH
[2] = Clearance in rat liver microsomes; type: ADME, Microsome; conditions: read-out: CLH
Homo sapiens [3] = species: Homo sapiens; assay: (§1) Selectivity index, ratio IC50 for inhibition of recombinant human full-length N-terminal His6-tagged p110beta/untagged full-length p85alpha expressed in baculovirus infected Sf21 cells to ratio IC50 for inhibition of recombinant human full-length N-terminal GST-tagged p110delta/untagged full-length p85alpha expressed in baculovirus infected Sf21 cells
[4] = target: PI3-kinase p110-delta/p85-alpha (Homo sapiens, UniProt O00329); assay: Inhibition of recombinant human full-length N-terminal GST-tagged p110delta/untagged full-length p85alpha expressed in baculovirus infected Sf21 cells using PIP2 as substrate preincubated for 15 mins followed by substrate addition and measured after 1 hr by HTRF assay
Sequence of PI3-kinase p110-delta/p85-alpha (P27986 whole entry, one chain of several): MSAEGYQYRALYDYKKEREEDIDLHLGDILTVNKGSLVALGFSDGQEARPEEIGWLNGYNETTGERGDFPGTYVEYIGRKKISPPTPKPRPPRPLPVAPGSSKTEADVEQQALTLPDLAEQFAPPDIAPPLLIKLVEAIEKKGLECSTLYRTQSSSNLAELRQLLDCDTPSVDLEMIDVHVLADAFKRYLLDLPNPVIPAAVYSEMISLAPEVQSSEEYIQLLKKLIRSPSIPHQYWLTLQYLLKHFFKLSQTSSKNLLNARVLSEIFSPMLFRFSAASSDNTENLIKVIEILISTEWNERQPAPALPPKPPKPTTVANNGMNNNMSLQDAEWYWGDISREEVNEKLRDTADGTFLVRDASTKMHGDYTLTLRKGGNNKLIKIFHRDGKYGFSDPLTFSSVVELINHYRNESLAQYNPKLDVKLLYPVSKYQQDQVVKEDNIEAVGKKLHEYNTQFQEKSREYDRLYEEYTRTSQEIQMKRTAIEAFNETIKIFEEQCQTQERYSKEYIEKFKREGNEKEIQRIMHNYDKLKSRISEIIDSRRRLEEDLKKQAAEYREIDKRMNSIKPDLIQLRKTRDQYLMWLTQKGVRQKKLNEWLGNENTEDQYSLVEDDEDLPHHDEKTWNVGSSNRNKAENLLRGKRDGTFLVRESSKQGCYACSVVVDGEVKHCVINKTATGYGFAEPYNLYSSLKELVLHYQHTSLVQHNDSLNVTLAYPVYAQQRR

[5] = Distribution coefficient, logD of compound by HPLC analysis; type: physicochemical; conditions: octanol/water
Homo sapiens [6] = species: Homo sapiens; assay: Selectivity index, ratio IC50 for inhibition of recombinant human N-terminal His6-tagged full-length p120gamma expressed in Sf21 insect cells to ratio IC50 for inhibition of recombinant human full-length N-terminal GST-tagged p110delta/untagged full-length p85alpha expressed in baculovirus infected Sf21 cells
Homo sapiens [7] = species: Homo sapiens; assay: as §1, with “p110alpha/untagged” for “p110beta/untagged”
[8] = target: T1, Phosphatidylinositol 4,5-bisphosphate 3-kinase catalytic subunit delta isoform (Homo sapiens, UniProt O00329); assay: Inhibition of PI3K delta in human whole blood assessed as inhibition of anti-IgE-stimulated CysLt release in basophils preincubated for 30 mins followed by anti-IgE stimulation and measured after 20 mins; type: tissue-based
T1 sequence (O00329 whole entry): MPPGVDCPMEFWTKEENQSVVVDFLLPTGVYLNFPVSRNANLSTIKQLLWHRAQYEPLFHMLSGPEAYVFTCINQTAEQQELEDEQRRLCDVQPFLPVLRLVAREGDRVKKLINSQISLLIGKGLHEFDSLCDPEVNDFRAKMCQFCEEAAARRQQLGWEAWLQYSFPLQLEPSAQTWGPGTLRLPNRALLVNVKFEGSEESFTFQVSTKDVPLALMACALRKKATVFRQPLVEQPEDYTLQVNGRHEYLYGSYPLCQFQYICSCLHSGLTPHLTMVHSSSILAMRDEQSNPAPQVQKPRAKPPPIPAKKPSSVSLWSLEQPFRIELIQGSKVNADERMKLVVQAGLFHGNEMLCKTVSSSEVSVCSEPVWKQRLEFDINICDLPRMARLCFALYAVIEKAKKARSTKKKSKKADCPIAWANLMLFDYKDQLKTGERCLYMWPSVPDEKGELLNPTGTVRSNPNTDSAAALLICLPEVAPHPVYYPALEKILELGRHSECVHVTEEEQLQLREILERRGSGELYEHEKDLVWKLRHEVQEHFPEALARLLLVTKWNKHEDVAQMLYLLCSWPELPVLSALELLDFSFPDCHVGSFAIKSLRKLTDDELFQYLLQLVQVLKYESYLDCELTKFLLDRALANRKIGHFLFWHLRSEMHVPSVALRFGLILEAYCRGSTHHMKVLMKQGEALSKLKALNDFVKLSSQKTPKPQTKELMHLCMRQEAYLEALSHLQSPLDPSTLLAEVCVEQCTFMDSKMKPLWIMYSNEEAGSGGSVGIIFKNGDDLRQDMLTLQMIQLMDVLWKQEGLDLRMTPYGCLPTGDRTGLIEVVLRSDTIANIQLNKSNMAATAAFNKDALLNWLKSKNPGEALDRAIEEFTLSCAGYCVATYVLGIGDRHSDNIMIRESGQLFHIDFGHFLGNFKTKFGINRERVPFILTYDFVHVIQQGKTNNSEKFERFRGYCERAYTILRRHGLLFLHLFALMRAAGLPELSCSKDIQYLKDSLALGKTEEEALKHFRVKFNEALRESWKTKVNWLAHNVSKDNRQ

[9] = Clearance in Wistar Han rat plasma at 0.05 mg/kg, iv administered as cassette dose; type: ADME, organism-based
[10] = Volume of drug distribution in Wistar Han rat at 0.05 mg/kg, iv administered as cassette dose; type: ADME, organism-based; conditions: in vivo
[11] = Half life in Wistar Han rat at 0.05 mg/kg, iv administered as cassette dose; type: ADME, organism-based; conditions: in vivo
[12] = Unbound clearance in Wistar Han rat at 0.05 mg/kg, iv administered as cassette dose; type: ADME, organism-based; conditions: in vivo
[13] = Protein binding in Wistar Han rat plasma at 0.05 mg/kg, iv administered as cassette dose; type: ADME, organism-based; conditions: read-out: PPB (converted)
[14] = Intrinsic clearance in human hepatocytes; type: ADME, cell-based, Hepatocyte; conditions: read-out: CLH
[15] = Intrinsic clearance in rat hepatocytes; type: ADME, cell-based, Hepatocyte; conditions: read-out: CLH

SMILES | CLint scaled [1] | CLint scaled [2] | Ratio IC50 (Homo sapiens [3]) | IC50 [4] | logD [5] | Ratio IC50 (Homo sapiens [6]) | Ratio IC50 (Homo sapiens [7]) | IC50 [8] | clearance [9] | Vd [10] | half-life [11] | CL free [12] | fraction unbound [13] | CLint scaled [14] | CLint scaled [15]
C[C@@H]1CN(c2nc(-c3cnn(C)c3)cnc2C#N)CCN1C(=O)C1CC1 | 50 mL/min/kg | 39 mL/min/kg | > 67 | 185 nM | 1.9 | > 67 | > 67 | 737 nM | – | – | – | – | – | – | –
CC1CC1C(=O)N1CCN(c2nc(-c3cnn(C)c3)ncc2C#N)C[C@H]1C (mixture of isomers) | < 16 mL/min/kg | < 36 mL/min/kg | > 159 | 79 nM | 2 | 159 | > 159 | 557 nM | – | – | – | – | – | – | –
N#Cc1cnc(-c2ccnc3[nH]ccc23)nc1N1C[C@@H]2C[C@H]1CN2c1cccc(F)c1 | – | – | 93 | 56 nM | 3.4 | 225 | 76 | – | – | – | – | – | – | – | –
C[C@@H]1CN(c2nc(-c3cnn(C)c3)ncc2C#N)CCN1c1cccc(F)c1 | – | – | > 76 | 165 nM | 3.3 | > 76 | > 76 | – | – | – | – | – | – | – | –
C[C@@H]1CN(c2cnc(C#N)c(-c3cnn(C)c3)n2)CCN1C(=O)C1CC1 | < 16 mL/min/kg | < 36 mL/min/kg | > 384 | 33 nM | 1.8 | > 384 | > 384 | 219 nM | – | – | – | – | – | – | –
C[C@@H]1CN(c2ncc(C#N)c(-c3cnn(C)c3)n2)CCN1C(=O)C1CC1 | < 16 mL/min/kg | 39 mL/min/kg | > 583 | 21 nM | 2 | 764 | > 583 | 764 nM | – | – | – | – | – | – | –
Cn1cc(-c2ncc(C#N)c(N3CCN(c4cccc(F)c4)CC3)n2)cn1 | – | – | > 8 | 1600 nM | 3.2 | > 8 | > 8 | – | – | – | – | – | – | – | –
C[C@@H]1C[C@H]1C(=O)N1CCN(c2nc(-c3cnn(C)c3)ncc2C#N)C[C@H]1C | < 16 mL/min/kg | 54 mL/min/kg | > 394 | 32 nM | 1.9 | > 394 | > 394 | 187 nM | – | – | – | – | – | – | –
Cn1cc(-c2ncc(C#N)c(N3CCN(c4cccc(F)c4)C(C)(C)C3)n2)cn1 | 91 mL/min/kg | 2050 mL/min/kg | > 8 | 1520 nM | 3.6 | > 8 | > 8 | – | – | – | – | – | – | – | –
N#Cc1cnc(-c2cnc3[nH]ccc3c2)nc1N1C[C@@H]2C[C@H]1CN2c1cccc(F)c1 | – | – | > 14 | 918 nM | – | > 14 | 8 | – | – | – | – | – | – | – | –
Cn1cc(-c2ncc(C#N)c(N3C[C@@H]4C[C@H]3CN4C(=O)C3CC3)n2)cn1 | < 16 mL/min/kg | < 36 mL/min/kg | 78 | 161 nM | 1.1 | 78 | > 78 | 258 nM | 46 mL/min/kg | 0.9 L/kg | 12 min | 85 mL/min/kg | 0.54 | – | –
CCC(=O)N1CCN(c2nc(-c3cnn(C)c3)ncc2C#N)C[C@H]1C | < 16 mL/min/kg | < 36 mL/min/kg | > 48 | 263 nM | 1.4 | > 48 | > 48 | 2320 nM | – | – | – | – | – | – | –
Cn1cc(-c2ncc(C#N)c(N3C[C@@H]4C[C@H]3CN4S(=O)(=O)C3CC3)n2)cn1 | < 16 mL/min/kg | < 36 mL/min/kg | 10 | 1190 nM | 1.6 | 10 | > 10 | 4120 nM | – | – | – | – | – | – | –
N#Cc1cnc(-c2cccnc2)nc1N1C[C@@H]2C[C@H]1CN2c1cccc(Cl)c1 | – | – | 14 | 474 nM | 3.82 | > 105 | 62 | – | – | – | – | – | – | – | –
N#Cc1cnc(-c2ccccc2)nc1N1C[C@@H]2C[C@H]1CN2c1cccc(F)c1 | – | – | – | > 10000 nM | 4.5 | – | – | – | – | – | – | – | – | – | –
C[C@@H]1CN(c2nc(-c3cnn(C)c3)ncc2C#N)CCN1C(=O)C1(C)CC1 | < 16 mL/min/kg | < 36 mL/min/kg | > 12 | 1050 nM | 1.7 | > 12 | > 12 | 5710 nM | – | – | – | – | – | – | –
N#Cc1cnc(N2Cc3cn[nH]c3C2)nc1N1C[C@@H]2C[C@H]1CN2c1cccc(F)c1 | – | – | > 146 | 86 nM | 2.9 | > 146 | > 146 | – | – | – | – | – | – | – | –
Cn1cc(-c2ncc(C#N)c(N3CC4CCC(C3)N4c3cccc(F)c3)n2)cn1 | 62 mL/min/kg | 529 mL/min/kg | > 12 | 1030 nM | 3.3 | > 12 | > 12 | – | – | – | – | – | – | – | –
N#Cc1cnc(-c2cccnc2)nc1N1C[C@@H]2C[C@H]1CN2c1cccc(F)c1 | – | – | > 27 | 364 nM | 3.43 | > 27 | > 27 | – | 90 mL/min/kg | 3.6 L/kg | 36 min | – | – | 69 mL/min/kg | 234 mL/min/kg
Cn1cc(-c2ncc(C#N)c(N3C[C@@H]4C[C@H]3CN4c3cccc(F)c3)n2)cn1 | 76 mL/min/kg | 1080 mL/min/kg | 308 | 31 nM | 3.1 | > 407 | 160 | 2960 nM | 68 mL/min/kg | 4.7 L/kg | 66 min | 4857 mL/min/kg | 0.014 | – | –
CCNC(=O)N1C[C@@H]2C[C@H]1CN2c1nc(-c2cnn(C)c2)ncc1C#N | – | – | 6 | 2190 nM | 0.8 | 6 | > 6 | – | – | – | – | – | – | – | –
C[C@@H]1CN(c2nc(-c3cnn(C)c3)ncc2C#N)CCN1C(=O)C1CCC1 | < 16 mL/min/kg | < 36 mL/min/kg | > 33 | 374 nM | 2 | > 33 | > 33 | 1560 nM | – | – | – | – | – | – | –
C[C@@H]1CN(c2nc(-c3cnn(C)c3)ncc2C#N)CCN1C(=O)C1CC1 | 21 mL/min/kg | < 36 mL/min/kg | > 116 | 108 nM | 1.5 | > 116 | > 116 | 329 nM | – | – | – | – | – | – | –
Cn1cc(-c2ncc(C#N)c(N3C[C@@H]4C[C@H]3CN4CC3CC3)n2)cn1 | < 16 mL/min/kg | 158 mL/min/kg | – | 1430 nM | 1.5 | – | – | 6970 nM | – | – | – | – | – | – | –
